Data on five compounds can be found in patent US6214859A, “Ethylamine derivatives” (Fujimoto Brothers Co., Ltd., priority 1997, dated 2001).

Molecules are shown by their SMILES.

In one data set the target is D2 receptor. The experiment in a line: Affinity to D2 receptor. Also noted: species or system rat. The following applies: read-out: Affinity to D2 receptor (MIC50; mole concentration for 50% inhibition of binding); 2.0 nM spiperone.
Another data set has as its target 5-HT1 receptor. Kind of data set: Affinity to 5-HT1 receptor. Also noted: species or system rat. The following applies: read-out: Affinity to 5-HT1 receptor (MIC50; mole concentration for 50% inhibition of binding); 2 nM ^3H-5-HT.
The next data set addresses α1 receptor. The experiment in a line: Affinity to α1 receptor. Further details: species or system rat. The conditions noted are these: read-out: Affinity to α1 receptor (MIC50; mole concentration for 50% inhibition of binding); 0.25 nM ^3H-prazocin; 90 min. The method, then:
The solution of receptor was prepared as follows. As soon as rats were decapitated, brain was removed and its weight was measured. Its brain was homogenized in ten times volumes of ice-cold 0.35 M sucrose (pH 7.4) by glass homogenizer with teflon pestle which was revolted by motors. Thereafter, the homogenate was centrifuged at 4° C. at 900×g for 10 min and the supernatant was, furthermore, recentrifuged at 4° C. at 22,000×g for 20 min. The precipitate was suspended by addition of 5 mM phosphate buffer solution (pH 7.4). After the suspension was incubated at 37° C. for 30 min, the suspension was recentrifuged at 4° C. at 22,000×g for 20 min. The precipitate was resuspended by addition of 10 ml of 5 mM phosphate buffer solution (pH 8.0). The precipitate was used as the solution of receptor.
^3 H-prazocin was used as a ligand. 0.25 nM ^3 H-prazocin in 5 mM phosphate buffer (pH 8.0), the compound of this invention and the solution of receptor were added in tube and the mixture were incubated at 25° C. for 90 min. In addition, the […] binding was shown by binding value of ^3 H-prazocin under the coexistence with 0.1 μM prazocin. The binding reaction was carried out as follows. After ^3 H-prazocin (binding type: B) bound to receptor using glassfiberfilter (pore size: 0.5 μm, Whatman GF/C.) and free type of prazocin (free type: F) were separated with B/F separator (Brandel, USA), only the binding type of ^3 H-prazocin was collected. The binding type of ^3 H-prazocin absorbed to glass-fiber filter was washed with ice-cold saline solution and was remove to vial. After 10 ml of scintillation cocktail was added in it, the radioactivity was determined. From the binding inhibition rate of α1 receptor and ligand, affinity of the compounds of this invention to α1 receptor was measured.
If affinity of certain compound to a receptor is high, the binding ligand and receptor is inhibited.

The next data set deals with α2 receptor. Kind of data set: Affinity to α2 receptor. Further details: species or system rat. The conditions noted are these: read-out: Affinity to α2 receptor (MIC50; mole concentration for 50% inhibition of binding); 0.7 nM ^3H-rauwolscine.
In a further data set the target is T1, 5-HT2 receptor (Rattus norvegicus, UniProt P14842).
T1 construct: The precipitate was used as the solution of receptor; from tissue; host or cells: rat brain (whole) crude membranes
T1 sequence (P14842 whole entry): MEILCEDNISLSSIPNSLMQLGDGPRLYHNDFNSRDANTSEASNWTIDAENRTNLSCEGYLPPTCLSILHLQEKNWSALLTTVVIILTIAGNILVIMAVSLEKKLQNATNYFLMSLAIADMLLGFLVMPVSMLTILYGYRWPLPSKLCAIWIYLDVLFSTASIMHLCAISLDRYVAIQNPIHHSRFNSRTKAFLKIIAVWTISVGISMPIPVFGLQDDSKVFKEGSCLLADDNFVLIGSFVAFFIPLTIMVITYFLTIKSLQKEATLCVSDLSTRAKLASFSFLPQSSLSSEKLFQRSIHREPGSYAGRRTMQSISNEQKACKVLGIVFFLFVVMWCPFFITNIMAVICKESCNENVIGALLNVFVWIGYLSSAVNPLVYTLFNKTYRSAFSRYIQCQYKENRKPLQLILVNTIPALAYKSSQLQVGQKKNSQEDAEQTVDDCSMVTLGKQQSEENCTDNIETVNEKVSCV
Kind of data set: Affinity to 5-HT2 receptor. It counts as binding.

The test system of data set [1] is rats reduced learning ability by tetrabenazine. Kind of data set: Conditioned avoidance task in the shuttle box (tetrabenazine-treated rats). The following applies: tetrabenazine 1 mg/kg s.c., significance and direction. It counts as in vivo, rat. Here is the method:
The method described in Life Sci., 58, 817-827 (1996) was used. The effects on conditioned avoidance reflex (CARs) was analyzed in the shuttle box using male and female rats (weighing 200-220 g) whose leaning abilities were reduced by treatment of tetrabenazine. The instrument was constructed, according to the device described in Psychopharmacologia 10, 1-5 (1966) by the Research Institute for Electrical Industry (Budapest, Hungary). The male and female rats (weighing 200-220 g) were trained to cross the berrier under the influence of a conditioned stimulus (CS) (light flash and buzzer sounds). […] And the performance which was not related to this condition was noted as an intersignal reaction (IR). The rats were trained with 100 trials per day for 5 days. One trial consisted of 15 sec intertrial interval. The saline solution of tetrabenazine was administered at a dose of 1 mg/kg subcutaneously before one hour prior to the test and then the solution of the compounds of this invention were administered at the doses of 1, 2, 2.5 and 5 mg/kg subcutaneously with the simultaneous administration of tetrabenazine. The nmbers of CARs, EFs and IRs were automatically counted and evaluated by multi-way analysis of variance (ANOVA).

For data set [2], the system named is dopamine release, striatum. The experiment in a line: Release of biogenic amines from brain tissue: dopamine, striatum. It counts as in vivo, Wistar rats. The method, then:
(§1) The method described in Life Sci., 56, 611-620 (1995) was used. After Wistar rats were decapitated, appropriate brain samples, which were striatun, substantia nigra, tuberculum olfactorium, locus coeruleus and raphe, were removed quickly and soaked in oxygenated (95% O2 and 5% CO2) Krebs solution at 37° C. The composition of Krebs solution was as follows in […]: NaCl 111, KCl 4.7, CaCl2 2.5, MgSO4 1.64, NaHCO3 25, KH2 PO4 1.2, glucose 11, 50 mg/l ascorbic add and 20 mg/l EDTA-2 Na. The preparations, soaked in one organ bath, were as follows: 1) four pieces of striatum (each halved), 2) four pieces of substantia nigra, 3) four pieces of tuberculum olfactorium; 4) eight pieces of locus coeruleus; 5) eight pieces of raphe. After incubation of the appropriate tissue for 20 min, the Krebs solution was replaced, the tissue soaked for 20 min in Krebs solution dissolving the compounds of this invention and the amount of biogenic amine released during this period of time was estimate. The compounds of this invention and PPAP, control compound, were dissolved in saline and were administered subcutaneously before 30 min to removing brain sample. For measuring noradrenaline and dopamine, samples were purified on 60 mg alumina containing micro columns (BDH Chemicals Ltd.) according to the method described in J. Pharmacol. Exp. Ther., 138, 360-372 (1962) For measuring serotonin, samples were purified on 15 mg Sephadex G-10 micro columns (Pharmacia). Dopamine, noradrenaline and serotonin were determined by high performance liquid chromatography (Waters 746 data module) with electrochemical detection (Waters 460 electrochemical detector). Waters Resolve 5μ Spherical C18 3.9×150 mm column was used as separating column and triethylamine-phosphate buffer (pH 5.2), containing 200 mg/l octane sulfonate sodium and 18 mg/l EDTA-2 Na with 6% acetonitrile, was used as mobile phase. The release amount of appropriate amine was noted as nmol/g tissue released for 20 min. deference of means tested by Student's t-test and significant level was set at P<.05.

Data set [3] deals with dopamine release, substantia nigra. The experiment in a line: Release of biogenic amines from brain tissue: dopamine, substantia nigra. Type of data set: in vivo, Wistar rats. The method, then: as §1
Data set [4] deals with noradrenaline release, locus coeruleus. The experiment in a line: Release of biogenic amines from brain tissue: noradrenaline, locus coeruleus. It counts as in vivo, Wistar rats. The method, then:
as §1

Data set [5] concerns dopamine release, tuberculum olfactorium. Kind of data set: Release of biogenic amines from brain tissue: dopamine, tuberculum olfactorium. It counts as in vivo, Wistar rats. The method, then:
as §1

Data set [6] concerns primary cultured hepatocyte. Kind of data set: Toxicity screening using primary cultured hepatocyte (LDH release). It counts as cell-based, rat. The conditions noted are these: 10 μM. The method, then:
(§2) The hepatocytes was prepared from rat liver by collagenase perfusion method and suspension containing 5×10^5 cells/ml were prepared. After cultivation for 24 hr, the suspension was exchanged to the William's Medium E (GIBCO BRL) containing 10 or 100 μM of the compounds of this invention. After cultivation for 24 hr, the activity of lactate dehydrogenase (LDH) released in the medium was measured.

Assay in data set [7]: as above
Type of data set: cell-based, rat. The following applies: rat, primary hepatocytes, 24 hr, control 0.5% saline or 0.5% DMSO, read-out: Percent control of LDH release. The method, then: as §2

The next data set has as its system serotonin release, raphe. Kind of data set: Release of biogenic amines from brain tissue: serotonin, raphe. Type of data set: in vivo, Wistar rats. The method, then:
as §1

Another data set deals with T2, D1 receptor (Rattus norvegicus, UniProt P18901).
T2 construct: The precipitate was used as the solution of receptor; from tissue; host or cells: rat brain (whole) crude membranes
T2 sequence (P18901 whole entry): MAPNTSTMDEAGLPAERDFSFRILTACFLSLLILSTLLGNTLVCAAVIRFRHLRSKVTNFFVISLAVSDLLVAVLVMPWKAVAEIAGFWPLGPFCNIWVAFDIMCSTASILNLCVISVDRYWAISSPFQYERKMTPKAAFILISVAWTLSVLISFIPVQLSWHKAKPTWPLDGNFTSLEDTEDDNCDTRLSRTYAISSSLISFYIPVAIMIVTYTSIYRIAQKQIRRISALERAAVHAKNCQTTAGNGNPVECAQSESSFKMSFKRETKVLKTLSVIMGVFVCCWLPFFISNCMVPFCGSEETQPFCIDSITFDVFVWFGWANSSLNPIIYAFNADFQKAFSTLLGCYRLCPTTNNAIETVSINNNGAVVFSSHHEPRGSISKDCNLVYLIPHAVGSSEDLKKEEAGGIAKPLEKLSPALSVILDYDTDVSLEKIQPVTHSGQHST
The experiment in a line: Affinity to D1 receptor. Type of data set: binding.

Turning to `C#CCN(C)[C@H](C)Cc1ccccc1` [Selegiline, reference compound], the IC50 on D2 receptor is over 10 µM; on 5-HT1 receptor, over 10 µM; on α1 receptor it was over 10 µM; at α2 receptor, 2 µM; against 5-HT2 receptor, over 10 µM.
On to `CCCNC(CCC)Cc1ccccc1` (racemic) [PPAP, 1-phenyl-2-propylaminopentane, reference compound], for which the “Condition Avoidance Reflex (CARs)” value in [1] (5 mg/kg s.c.) is recorded as “**** .Arrow-up bold”. Besides, in data set [1] (5 mg/kg s.c.), the “Intersignal Reactions (IRs)” value is “**** .Arrow-up bold”. In addition, the “Release of dopamine, striatum” value in [2] (0.25 mg/kg s.c.) is listed as 3.5 ± 0.19 nmol/g tissue, for 20 min; in data set [2] (1.00 mg/kg s.c.), 3.6 ± 0.19 nmol/g tissue, for 20 min. For the same compound, the “Release of dopamine, substantia nigra” value is 4.0 ± 0.24 nmol/g tissue, for 20 min in data set [3] (0.25 mg/kg s.c.) and 4.0 ± 0.21 nmol/g tissue, for 20 min in [3] (1.00 mg/kg s.c.). The “Release of noradrenaline, locus coeruleus” value (“Release of noradrenaline” for short) in [4] (0.25 mg/kg s.c.) is reported as 3.8 ± 0.30 nmol/g tissue, for 20 min; in [4] (1.00 mg/kg s.c.), 4.6 ± 0.15 nmol/g tissue, for 20 min. Further, the “Release of dopamine, tuberculum olfactorium” value in data set [5] (0.25 mg/kg s.c.) is reported as 3.7 ± 0.10 nmol/g tissue, for 20 min; in data set [5] (1.00 mg/kg s.c.) it was 3.2 ± 0.21 nmol/g tissue, for 20 min. Moreover, in [6], the “LDH release, significance in words” value was “released LDH significantly”. Further, in [7], the activity at 24 h, 10 µM stood at 127 ± 5.45%. The activity at 24 h, 100 µM in data set [7] stood at 152 ± 11.1%. Besides, the “Release of serotonin, raphe” value is on record as 0.416 ± 0.03 nmol/g tissue, for 20 min in the data set with serotonin release, raphe (0.25 mg/kg s.c.) and 0.741 ± 0.01 nmol/g tissue, for 20 min in the data set with serotonin release, raphe (1.00 mg/kg s.c.).
Consider `CCCNC(CCC)Cc1cccc2[nH]ccc12.Cl` (stereo not shown) [Compound No. 21, 1-(Indol-4-yl)-2-propylaminopentane Hydrochloride], for which the IC50 at D2 receptor is over 10 µM; on 5-HT1 receptor, over 10 µM; against D1 receptor it was over 10 µM; on α1 receptor it was over 10 µM; on α2 receptor, 0.7 µM; at 5-HT2 receptor, over 10 µM. Moreover, the “Condition Avoidance Reflex (CARs)” value in [1] (0.5 mg/kg s.c.) is “** .Arrow-up bold”; in [1] (1 mg/kg s.c.) it was “**** .Arrow-up bold”. The “Release of dopamine, striatum” value in data set [2] (0.01 mg/kg s.c.) is given as 5.4 ± 0.17 nmol/g tissue, for 20 min. Also, the “Release of dopamine, substantia nigra” value in [3] (0.01 mg/kg s.c.) is recorded as 10.0 ± 0.30 nmol/g tissue, for 20 min. For the same compound, the “Release of noradrenaline” value in data set [4] (0.01 mg/kg s.c.) is given as 4.6 ± 0.40 nmol/g tissue, for 20 min. Further, the “Release of dopamine, tuberculum olfactorium” value in [5] (0.01 mg/kg s.c.) was 7.4 ± 0.15 nmol/g tissue, for 20 min. For the same compound, the activity at 24 h, 10 µM in [7] is 110 ± 4.42%. The activity at 24 h, 100 µM in data set [7] came out at 130 ± 9.68%. For the same compound, the “Release of serotonin, raphe” value with serotonin release, raphe (0.01 mg/kg s.c.) was 0.354 ± 0.00 nmol/g tissue, for 20 min.
Turning to `CC(C)C[C@H]1C(=O)N2CCC[C@H]2[C@]2(O)O[C@](NC(=O)[C@@H]3C=C4c5cccc6[nH]c(Br)c(c56)C[C@H]4N(C)C3)(C(C)C)C(=O)N12` [Bromocriptine, reference compound], the IC50 at D2 receptor was found to be 0.01 µM; at 5-HT1 receptor, 0.1 µM; against D1 receptor, 10 µM; at α1 receptor it was 0.01 µM; at α2 receptor it was 0.1 µM; at 5-HT2 receptor, 1 µM.
With `CCCNC(CCC)Cc1cc2ccccc2o1.Cl` (stereo not shown) [Compound No. 25, 1-(Benzofuran-2-yl)-2-propylaminopentane Hydrochloride], the IC50 was over 10 µM at D2 receptor; over 10 µM on 5-HT1 receptor; over 10 µM on D1 receptor; over 10 µM on α1 receptor; 1 µM at α2 receptor; 20 µM against 5-HT2 receptor. Further, the “Condition Avoidance Reflex (CARs)” value in [1] (1 mg/kg s.c.) and in data set [1] (5 mg/kg s.c.) was “**** .Arrow-up bold” in each case. In [1] (1 mg/kg s.c.), the “Escape Failures (EFs)” value was “* .dwnarw”. Moreover, the “Intersignal Reactions (IRs)” value in data set [1] (5 mg/kg s.c.) was “* .Arrow-up bold”. For the same compound, in [2] (0.01 mg/kg s.c.), the “Release of dopamine, striatum” value was 5.3 ± 0.14 nmol/g tissue, for 20 min. Moreover, the “Release of dopamine, substantia nigra” value in data set [3] (0.01 mg/kg s.c.) is 6.6 ± 0.04 nmol/g tissue, for 20 min. Besides, in data set [4] (0.01 mg/kg s.c.), the “Release of noradrenaline” value was 4.3 ± 0.20 nmol/g tissue, for 20 min. In data set [5] (0.01 mg/kg s.c.), the “Release of dopamine, tuberculum olfactorium” value is recorded as 6.5 ± 0.20 nmol/g tissue, for 20 min. In addition, in [7], the activity at 24 h, 10 µM was 90.3 ± 2.85%. Besides, the activity at 24 h, 100 µM in [7] worked out at 112 ± 37%. Besides, the “Release of serotonin, raphe” value with serotonin release, raphe (0.01 mg/kg s.c.) is reported as 0.457 ± 0.04 nmol/g tissue, for 20 min.
